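Test compounds were applied to cells in 96-well plates for 48 hours at 5 doses. TGI: concentration producing complete growth inhibition.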

In PubChem BioAssay (NCI) one finds TGI data, which are given here for 6 compounds.

Test systems include DLD-1 colon; M19-MEL melanoma; LXFL 529 NSCLC; SNB-78 CNS; KM20L2 colon; XF 498 CNS; HOP-18 NSCLC; SN12K1 renal; P388 leukemia; P388/ADR leukemia.
What all share (assay): NCI tumour cell line growth inhibition, 48 h

With `CC1(C)OC2C(CO)OC(/N=C(\NC#N)Oc3ccccc3)C2O1` (stereo unspecified), the TGI with DLD-1 colon, with M19-MEL melanoma, in the assay on LXFL 529 NSCLC, in the assay on SNB-78 CNS, in the assay on KM20L2 colon and in the assay on XF 498 CNS was more than 100 µM in each case.
With `c1ccc(C[P+]2(c3ccccc3)CCCCC2)cc1`, the TGI with DLD-1 colon, in the assay with M19-MEL melanoma, in the assay with LXFL 529 NSCLC, with SNB-78 CNS, in the assay with HOP-18 NSCLC and in the assay on KM20L2 colon was more than 100 µM each time. The compound also registered a TGI in the assay on XF 498 CNS of 98.2 µM.
`O=C1CCCn2c3ccccc3c3ccnc1c32`: the TGI in the assay on DLD-1 colon was more than 100 µM; with M19-MEL melanoma, more than 100 µM; in the assay with SN12K1 renal, more than 100 µM; in the assay on P388 leukemia it was more than 93.9 µM; with SNB-78 CNS, more than 100 µM; in the assay on HOP-18 NSCLC, more than 100 µM. Besides, the TGI with KM20L2 colon was more than 100 µM; with XF 498 CNS, 74.5 µM; in the assay with P388/ADR leukemia, more than 100 µM.
`CSCC[C@@H](NC(=O)[C@H](CC(C)C)NC(=O)C(Cc1cnc[nH]1)NC(=O)CNC(=O)[C@@H](NC(=O)[C@H](C)NC(=O)[C@H](Cc1cn(C=O)c2ccccc12)NC(=O)[C@H](CCC(N)=O)NC(=O)[C@@H](N)CC(N)=O)C(C)C)C(N)=O` (stereo partly specified): the TGI in the assay on DLD-1 colon, in the assay with M19-MEL melanoma, in the assay on SN12K1 renal, in the assay on P388 leukemia, with SNB-78 CNS and in the assay on HOP-18 NSCLC was more than 100 µM throughout. Further, the TGI with KM20L2 colon, in the assay with XF 498 CNS and in the assay on P388/ADR leukemia was more than 100 µM each time.
As to `COc1ccc(/C=N/N=C(N)N)c(C(=O)O)c1OC`, the TGI in the assay on LXFL 529 NSCLC, in the assay with SNB-78 CNS, with HOP-18 NSCLC and in the assay with KM20L2 colon was more than 100 µM in each case.
Consider `CC12CCC3=C(CSC4=C3CSc3ccccc34)C1=CCCC2=O` (stereo unspecified), for which the TGI in the assay with DLD-1 colon was more than 100 µM; with M19-MEL melanoma, more than 100 µM; in the assay with LXFL 529 NSCLC it was more than 100 µM; in the assay with HOP-18 NSCLC, more than 100 µM; in the assay on KM20L2 colon it was more than 100 µM; in the assay with XF 498 CNS, 87.3 µM.
